Measurements published in paper PMC5656653, “Evaluation of Ga-DOTA-(D-Asp)n as bone imaging agents: D-aspartic acid peptides as carriers to bone” (Scientific Reports, 2017).
Entries after “also recorded” stand apart in the source; their conditions may differ.

Test: Biodistribution experiments in normal mice after i.v. injection
Assay type: in vivo
Conditions: i.v.; for Biodistribution of radioactivity, Blood / Biodistribution of radioactivity, Bone (Femur) / Biodistribution of radioactivity, Brain / Biodistribution of radioactivity, Heart / Biodistribution of radioactivity, Kidney / Biodistribution of radioactivity, Large-intestine / Biodistribution of radioactivity, Liver / Biodistribution of radioactivity, Lung / Biodistribution of radioactivity, Muscle / Biodistribution of radioactivity, Pancreas / Biodistribution of radioactivity, Small-intestine / Biodistribution of radioactivity, Spleen / F/B ratio (Femur:blood ratio) / Biodistribution of radioactivity, Stomach: mice, mean (SD); for Biodistribution of radioactivity, Stomach: footnote b
Experimental: Experiments with animals were conducted in strict accordance with the Guidelines for the Care and Use of Laboratory Animals of Kanazawa University. The animal experimental protocols used were approved by the Committee on Animal Experimentation of Kanazawa University (Permit Number: AP-132633). Biodistribution experiments were performed after intravenous administration of each diluted tracer solution (37–740 kBq/100 μL) to 6-week-old male ddY mice (27–32 g, Japan SLC, Inc., Hamamatsu, Japan). Four or five mice at each time point after the administration of each compound were sacrificed by decapitation at 10, 60, and 180 min post-injection. Tissues of interest were taken and weighed. Complete left femurs were isolated as representative bone samples, radioactivity was determined using gamma counters (AccuFLEX γ ARC-8001 in the case of ^18F, Hitachi, Ltd.), and background counts and physical decay were corrected during counting.

## [18F-].[Na+] [[^18F]NaF, reference compound]
10 min after injection
  Biodistribution of radioactivity, Blood: 1.78 (0.23) % injected dose
  Biodistribution of radioactivity, Bone (Femur): 27.69 (3.15) % injected dose
  Biodistribution of radioactivity, Brain: 0.10 (0.02) % injected dose
  Biodistribution of radioactivity, Heart: 1.84 (0.41) % injected dose
  Biodistribution of radioactivity, Kidney: 5.23 (2.31) % injected dose
  Biodistribution of radioactivity, Large-intestine: 0.95 (0.22) % injected dose
  Biodistribution of radioactivity, Liver: 1.34 (0.17) % injected dose
  Biodistribution of radioactivity, Lung: 1.44 (0.19) % injected dose
  Biodistribution of radioactivity, Muscle: 0.83 (0.13) % injected dose
  Biodistribution of radioactivity, Pancreas: 0.87 (0.15) % injected dose
  Biodistribution of radioactivity, Small-intestine: 1.31 (0.22) % injected dose
  Biodistribution of radioactivity, Spleen: 1.10 (0.15) % injected dose
  F/B ratio (Femur:blood ratio): 15.59 (1.01)
  Biodistribution of radioactivity, Stomach: 0.36 (0.04) % injected dose
60 min after injection
  Biodistribution of radioactivity, Blood: 0.11 (0.04) % injected dose
  Biodistribution of radioactivity, Bone (Femur): 39.96 (2.52) % injected dose
  Biodistribution of radioactivity, Brain: 0.36 (0.52) % injected dose
  Biodistribution of radioactivity, Heart: 0.15 (0.05) % injected dose
  Biodistribution of radioactivity, Kidney: 1.13 (0.89) % injected dose
  Biodistribution of radioactivity, Large-intestine: 1.21 (0.27) % injected dose
  Biodistribution of radioactivity, Liver: 0.09 (0.02) % injected dose
  Biodistribution of radioactivity, Lung: 0.10 (0.03) % injected dose
  Biodistribution of radioactivity, Muscle: 0.07 (0.04) % injected dose
  Biodistribution of radioactivity, Pancreas: 0.08 (0.08) % injected dose
  Biodistribution of radioactivity, Small-intestine: 0.68 (0.10) % injected dose
  Biodistribution of radioactivity, Spleen: 0.08 (0.02) % injected dose
  F/B ratio (Femur:blood ratio): 381.63 (84.17)
  Biodistribution of radioactivity, Stomach: 0.06 (0.02) % injected dose
180 min after injection
  Biodistribution of radioactivity, Blood: 0.02 (0.00) % injected dose
  Biodistribution of radioactivity, Bone (Femur): 43.91 (2.64) % injected dose
  Biodistribution of radioactivity, Brain: 0.05 (0.02) % injected dose
  Biodistribution of radioactivity, Heart: 0.02 (0.01) % injected dose
  Biodistribution of radioactivity, Kidney: 0.15 (0.08) % injected dose
  Biodistribution of radioactivity, Large-intestine: 1.39 (0.19) % injected dose
  Biodistribution of radioactivity, Liver: 0.02 (0.00) % injected dose
  Biodistribution of radioactivity, Lung: 0.03 (0.01) % injected dose
  Biodistribution of radioactivity, Muscle: 0.01 (0.01) % injected dose
  Biodistribution of radioactivity, Pancreas: 0.02 (0.03) % injected dose
  Biodistribution of radioactivity, Small-intestine: 0.06 (0.02) % injected dose
  Biodistribution of radioactivity, Spleen: 0.02 (0.00) % injected dose
  F/B ratio (Femur:blood ratio): 1983.88 (256.88)
  Biodistribution of radioactivity, Stomach: 0.13 (0.14) % injected dose
Normal mice
  Accumulation of radioactivity in bone (in words): high accumulation and retention of radioactivity in bone; also recorded: highest bone uptake
